Data reported in patent publication US8680113B2, “BMI-1 protein expression modulators” (PTC Therapeutics, Inc., priority 2008, dated 2014).
Where a name gives a salt, the structure may show the parent alone.

Key:
Bmi-1 [1] = experiment: Cell Model Assay: Bmi-1 expression in U87-MG; format: cell-based; conditions: U87-MG (glioblastoma)
Method: (§1) Using assay conditions known to those skilled in the art, the ability of the compounds described herein to reduce Bmi-1 expression in HT1080 (fibrosarcoma), U87-MG (glioblastoma), T98G (glioblastoma), K562 (chronic myelogenous leukemia) and KG1 (acute myelogenous leukemia) cell lines was tested (at test compound concentrations calculated from the ELISA assay data shown in Example 1) compared to puromycin as a control to provide the EC50 values shown in Table 2. The term “ND” means that data was not determined.

Bmi-1 [2] = experiment: Cell Model Assay: Bmi-1 expression in K562; format: cell-based; conditions: K562 (chronic myelogenous leukemia)
Method: as §1

Bmi-1 [3] = experiment: Cell Model Assay: Bmi-1 expression in KG1; format: cell-based; conditions: KG1 (acute myelogenous leukemia)
Method: as §1

Bmi-1 [4] = experiment: Cell Model Assay: Bmi-1 expression in HT1080; format: cell-based, human; conditions: HT1080 (fibrosarcoma)
Method: as §1

Bmi-1 [5] = experiment: Cell Model Assay: Bmi-1 expression in T98G; format: cell-based; conditions: T98G (glioblastoma)
Method: as §1

Bmi-1 [6] = experiment: Sandwich ELISA Assay (Bmi-1 ELISA in HT-1080 cells); format: cell-based, human
Procedure, shortened: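 HT-1080 cells (8000/well) were treated with compounds in 0.5% final DMSO for 40-48 h at 37°C and then lysed. Bmi-1 in lysates was measured by sandwich ELISA: overnight capture at 4°C on mouse monoclonal, rabbit anti-Bmi-1 detection, HRP anti-rabbit, TMB. OD450 was read with an OD570 reference against a recombinant GST-Bmi-1 standard curve (0-8000 pg/mL).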

MM cell line = experiment: Multiple Myeloma Assay; format: cell-based; conditions: 72 hrs in culture
MCL-Jeko = experiment: Mantle Cell Lymphoma Assay: cytotoxicity, Jeko; format: cell-based; conditions: 72 hrs in culture
Excerpt: (§2) MCL cell lines Jeko, Mino, and Rec-1 were provided by American Type Culture Collection: The Bioresource Center (Manassas, Va.). […] Carlsbad, Calif.) in T-75 culture flasks. Cell concentration was maintained between 2 to 3×10^5 cells/mL. Early passage cells (passages 2-4) were used for all experiments. Ficoll-Histopaque density sedimentation (Sigma Aldrich) was used for separation of debris and purification of cell lines prior to experiments. […] The cytotoxic effect of test compounds on the MCL-cell lines was assessed by measuring cell concentration and cell viability using a Beckman Coulter Vi-Cell Counter. Controls and treated cells were harvested and counted at day 3.

MCL-Mino = experiment: Mantle Cell Lymphoma Assay: cytotoxicity, Mino; format: cell-based; conditions: 72 hrs in culture
Excerpt: as §2

MCL-Rec1 = experiment: Mantle Cell Lymphoma Assay: cytotoxicity, Rec-1; format: cell-based; conditions: 72 hrs in culture
Excerpt: as §2

[7] = test system: Jeko, Mino and Rec-1 cells; experiment: cells; format: cell-based; conditions: 72 h, read-out: decrease in cell viability

## COc1cc(Cl)c(Nc2nc(-c3c(C)nc4ncccn34)cs2)c(Cl)c1 (as salt: HBr) [Cpd 19, N-(2,6-dichloro-4-methoxyphenyl)-4-(2-methylimidazo[1,2-a]pyrimidin-3-yl)thiazol-2-amine]
other
  melting point: 232 to 240 °C

## COc1ccc(C[C@H](N)C(=O)N[C@H]2[C@@H](O)[C@H](n3cnc4c(N(C)C)ncnc43)O[C@@H]2CO)cc1 [Control, puromycin, reference compound]
Bmi-1 [1]
  EC50: 0.42 µM
Bmi-1 [2]
  EC50: 0.49 µM
Bmi-1 [3]
  EC50: 1.1 µM
Bmi-1 [4]
  EC50: 0.45 µM
Bmi-1 [5]
  EC50: 0.23 µM

## Cc1nc2ncccn2c1-c1csc(Nc2ccc(N(C)C)cc2)n1 [Cpd 12, N,N-dimethyl-N′-(4-(2-methylimidazo[1,2-a]pyrimidin-3-yl)thiazol-2-yl)benzene-1,4-diamine]
Bmi-1 [1]
  EC50: 0.11 µM
Bmi-1 [6]
  IC50: < 0.5 µM
Bmi-1 [2]
  EC50: 0.01 µM
Bmi-1 [3]
  EC50: 0.216 µM
Bmi-1 [4]
  EC50: 0.039 µM
Bmi-1 [5]
  EC50: < 0.004 µM

## COc1cc(C)c(Nc2nc(-c3cnc4ccc(Cl)cn34)cs2)c(C)c1 [Cpd 27, 4-(6-chloroimidazo[1,2-a]pyridine-3-yl)-N-(4-methoxy-2,6-dimethylphenyl)thiazol-2-amine]
MM cell line; dose 0.004 μM
  Cell Concentration, MM cell line: 1.46 ± 0.01 ×10^6
MM cell line; dose 0.037 μM
  Cell Concentration, MM cell line: 1.36 ± 0.07 ×10^6
MM cell line; dose 0.11 μM
  Cell Concentration, MM cell line: 1.30 ± 0.01 ×10^6
MM cell line; dose 0.33 μM
  Cell Concentration, MM cell line: 0.80 ± 0.01 ×10^6
MM cell line; dose 1 μM
  Cell Concentration, MM cell line: 0.17 ± 0.00 ×10^6
MM cell line; dose 3 μM
  Cell Concentration, MM cell line: 0.2 ± 0.05 ×10^6
MCL-Jeko; dose 0.004 μM
  Cell Concentration, MCL-Jeko: 1.98 ± 0.03 ×10^6
MCL-Jeko; dose 0.037 μM
  Cell Concentration, MCL-Jeko: 1.99 ± 0.02 ×10^6
MCL-Jeko; dose 0.11 μM
  Cell Concentration, MCL-Jeko: 1.96 ± 0.05 ×10^6
MCL-Jeko; dose 0.33 μM
  Cell Concentration, MCL-Jeko: 1.77 ± 0.02 ×10^6
MCL-Jeko; dose 1 μM
  Cell Concentration, MCL-Jeko: 1.46 ± 0.02 ×10^6
MCL-Jeko; dose 3 μM
  Cell Concentration, MCL-Jeko: 0.34 ± 0.04 ×10^6
Bmi-1 [1]
  EC50: 1.2 µM
MCL-Mino; dose 0.004 μM
  Cell Concentration, MCL-Mino: 0.62 ± 0.02 ×10^6
MCL-Mino; dose 0.037 μM
  Cell Concentration, MCL-Mino: 0.64 ± 0.01 ×10^6
MCL-Mino; dose 0.11 μM
  Cell Concentration, MCL-Mino: 0.59 ± 0.03 ×10^6
MCL-Mino; dose 0.33 μM
  Cell Concentration, MCL-Mino: 0.57 ± 0.01 ×10^6
MCL-Mino; dose 1 μM
  Cell Concentration, MCL-Mino: 0.41 ± 0.00 ×10^6
MCL-Mino; dose 3 μM
  Cell Concentration, MCL-Mino: 0.09 ± 0.00 ×10^6
Bmi-1 [6]
  IC50: < 0.5 µM
MCL-Rec1; dose 0.004 μM
  Cell Concentration, MCL-Rec1: 1.66 ± 0.06 ×10^6
MCL-Rec1; dose 0.037 μM
  Cell Concentration, MCL-Rec1: 1.65 ± 0.03 ×10^6
MCL-Rec1; dose 0.11 μM
  Cell Concentration, MCL-Rec1: 1.63 ± 0.04 ×10^6
MCL-Rec1; dose 0.33 μM
  Cell Concentration, MCL-Rec1: 1.53 ± 0.01 ×10^6
MCL-Rec1; dose 1 μM
  Cell Concentration, MCL-Rec1: 1.24 ± 0.03 ×10^6
MCL-Rec1; dose 3 μM
  Cell Concentration, MCL-Rec1: 0.09 ± 0.01 ×10^6
Bmi-1 [2]
  EC50: 0.055 µM
Bmi-1 [3]
  EC50: 0.128 µM
Bmi-1 [4]
  EC50: 0.41 µM
Bmi-1 [5]
  EC50: 0.091 µM

## Cc1nc2ncccn2c1-c1csc(Nc2ccc(Cl)cc2)n1 [Cpd 49, N-(4-chlorophenyl)-4-(2-methylimidazo[1,2-a]pyrimidin-3-yl)-1,3-thiazol-2-amine]
MM cell line; dose 0.004 μM
  Cell Concentration, MM cell line: 1.22 ± 0.05 ×10^6
  viability at 0.004 µM: 89.63 ± 0.35%
MM cell line; dose 0.037 μM
  Cell Concentration, MM cell line: 1.09 ± 0.05 ×10^6
  viability at 0.037 µM: 89.53 ± 0.46%
MM cell line; dose 0.11 μM
  Cell Concentration, MM cell line: 0.85 ± 0.05 ×10^6
  viability at 0.11 µM: 84.7 ± 0.88%
MM cell line; dose 0.33 μM
  Cell Concentration, MM cell line: 0.38 ± 0.01 ×10^6
  viability at 0.33 µM: 69.6 ± 0.85%
MM cell line; dose 1 μM
  Cell Concentration, MM cell line: 0.21 ± 0.01 ×10^6
  viability at 1 µM: 55.5 ± 2.4%
MM cell line; dose 3 μM
  Cell Concentration, MM cell line: 0.22 ± 0.01 ×10^6
  viability at 3 µM: 55.5 ± 1.79%
MCL-Jeko; dose 0.004 μM
  Cell Concentration, MCL-Jeko: 1.83 ± 0.01 ×10^6
MCL-Jeko; dose 0.004 μM, read-out: Cell Viability, MCL-Jeko
  viability at 0.004 µM: 74.33 ± 0.53%
MCL-Jeko; dose 0.037 μM
  Cell Concentration, MCL-Jeko: 1.94 ± 0.06 ×10^6
MCL-Jeko; dose 0.037 μM, read-out: Cell Viability, MCL-Jeko
  viability at 0.037 µM: 74.7 ± 1.08%
MCL-Jeko; dose 0.11 μM
  Cell Concentration, MCL-Jeko: 2.06 ± 0.04 ×10^6
MCL-Jeko; dose 0.11 μM, read-out: Cell Viability, MCL-Jeko
  viability at 0.11 µM: 78.73 ± 0.33%
MCL-Jeko; dose 0.33 μM
  Cell Concentration, MCL-Jeko: 1.82 ± 0.06 ×10^6
MCL-Jeko; dose 0.33 μM, read-out: Cell Viability, MCL-Jeko
  viability at 0.33 µM: 73.2 ± 0.58%
MCL-Jeko; dose 1 μM
  Cell Concentration, MCL-Jeko: 0.66 ± 0.05 ×10^6
MCL-Jeko; dose 1 μM, read-out: Cell Viability, MCL-Jeko
  viability at 1 µM: 39.6 ± 2.28%
MCL-Jeko; dose 3 μM
  Cell Concentration, MCL-Jeko: 0.06 ± 0.01 ×10^6
MCL-Jeko; dose 3 μM, read-out: Cell Viability, MCL-Jeko
  viability at 3 µM: 5.4 ± 0.61%
[7]
  cytotoxicity at 0.08 µM: 70 to 90%
MCL-Mino; Homo sapiens, MINO, dose 0.004 μM, read-out: Cell Viability, MCL-Mino
  viability at 0.004 µM: 94.7 ± 0.44%
MCL-Mino; Homo sapiens, MINO, dose 0.037 μM, read-out: Cell Viability, MCL-Mino
  viability at 0.037 µM: 91.2 ± 1%
MCL-Mino; Homo sapiens, MINO, dose 0.11 μM, read-out: Cell Viability, MCL-Mino
  viability at 0.11 µM: 75.6 ± 1.49%
MCL-Mino; Homo sapiens, MINO, dose 0.33 μM, read-out: Cell Viability, MCL-Mino
  viability at 0.33 µM: 34.4 ± 2.46%
MCL-Mino; Homo sapiens, MINO, dose 1 μM, read-out: Cell Viability, MCL-Mino
  viability at 1 µM: 15.3 ± 1.13%
MCL-Mino; Homo sapiens, MINO, dose 3 μM, read-out: Cell Viability, MCL-Mino
  viability at 3 µM: 12.7 ± 1.47%
MCL-Mino; dose 0.004 μM
  Cell Concentration, MCL-Mino: 1.87 ± 0.04 ×10^6
MCL-Mino; dose 0.037 μM
  Cell Concentration, MCL-Mino: 1.72 ± 0.09 ×10^6
MCL-Mino; dose 0.11 μM
  Cell Concentration, MCL-Mino: 0.97 ± 0.06 ×10^6
MCL-Mino; dose 0.33 μM
  Cell Concentration, MCL-Mino: 0.15 ± 0.06 ×10^6
MCL-Mino; dose 1 μM
  Cell Concentration, MCL-Mino: 0.07 ± 0.01 ×10^6
MCL-Mino; dose 3 μM
  Cell Concentration, MCL-Mino: 0.06 ± 0.01 ×10^6
Bmi-1 [6]
  IC50: < 0.5 µM
MCL-Rec1; Homo sapiens, Rec1, dose 0.004 μM, read-out: Cell Viability, MCL-Rec1
  viability at 0.004 µM: 89.2 ± 0.33%
MCL-Rec1; Homo sapiens, Rec1, dose 0.037 μM, read-out: Cell Viability, MCL-Rec1
  viability at 0.037 µM: 89.07 ± 0.33%
MCL-Rec1; Homo sapiens, Rec1, dose 0.11 μM, read-out: Cell Viability, MCL-Rec1
  viability at 0.11 µM: 90.07 ± 0.1%
MCL-Rec1; Homo sapiens, Rec1, dose 0.33 μM, read-out: Cell Viability, MCL-Rec1
  viability at 0.33 µM: 81.93 ± 0.03%
MCL-Rec1; Homo sapiens, Rec1, dose 1 μM, read-out: Cell Viability, MCL-Rec1
  viability at 1 µM: 51 ± 1.83%
MCL-Rec1; Homo sapiens, Rec1, dose 3 μM, read-out: Cell Viability, MCL-Rec1
  viability at 3 µM: 12 ± 0.95%
MCL-Rec1; dose 0.004 μM
  Cell Concentration, MCL-Rec1: 0.83 ± 0.01 ×10^6
MCL-Rec1; dose 0.037 μM
  Cell Concentration, MCL-Rec1: 0.87 ± 0.01 ×10^6
MCL-Rec1; dose 0.11 μM
  Cell Concentration, MCL-Rec1: 0.84 ± 0.01 ×10^6
MCL-Rec1; dose 0.33 μM
  Cell Concentration, MCL-Rec1: 0.58 ± 0.00 ×10^6
MCL-Rec1; dose 1 μM
  Cell Concentration, MCL-Rec1: 0.21 ± 0.01 ×10^6
MCL-Rec1; dose 3 μM
  Cell Concentration, MCL-Rec1: 0.04 ± 0.00 ×10^6
